{
  "source": "BindingDB's records for patent US9388210",
  "about": "(Washington University, 2016)",
  "target": "Gamma-aminobutyric acid receptor subunit alpha-1/beta-2/gamma-2 (Rattus norvegicus, UniProt P18508+P62813+P63138)",
  "sequence (P62813 whole entry)": "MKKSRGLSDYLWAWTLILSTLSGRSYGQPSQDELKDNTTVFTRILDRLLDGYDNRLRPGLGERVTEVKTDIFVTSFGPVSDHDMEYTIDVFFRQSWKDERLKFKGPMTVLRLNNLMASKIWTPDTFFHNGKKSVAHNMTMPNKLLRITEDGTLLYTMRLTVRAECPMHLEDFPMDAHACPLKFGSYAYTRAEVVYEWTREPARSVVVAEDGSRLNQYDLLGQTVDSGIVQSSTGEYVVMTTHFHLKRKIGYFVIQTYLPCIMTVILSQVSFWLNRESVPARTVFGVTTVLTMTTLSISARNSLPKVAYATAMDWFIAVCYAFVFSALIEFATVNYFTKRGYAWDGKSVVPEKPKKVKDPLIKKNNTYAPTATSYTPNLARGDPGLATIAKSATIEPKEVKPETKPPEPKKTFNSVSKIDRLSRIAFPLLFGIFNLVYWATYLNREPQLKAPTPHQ",
  "sequence (P63138 whole entry)": "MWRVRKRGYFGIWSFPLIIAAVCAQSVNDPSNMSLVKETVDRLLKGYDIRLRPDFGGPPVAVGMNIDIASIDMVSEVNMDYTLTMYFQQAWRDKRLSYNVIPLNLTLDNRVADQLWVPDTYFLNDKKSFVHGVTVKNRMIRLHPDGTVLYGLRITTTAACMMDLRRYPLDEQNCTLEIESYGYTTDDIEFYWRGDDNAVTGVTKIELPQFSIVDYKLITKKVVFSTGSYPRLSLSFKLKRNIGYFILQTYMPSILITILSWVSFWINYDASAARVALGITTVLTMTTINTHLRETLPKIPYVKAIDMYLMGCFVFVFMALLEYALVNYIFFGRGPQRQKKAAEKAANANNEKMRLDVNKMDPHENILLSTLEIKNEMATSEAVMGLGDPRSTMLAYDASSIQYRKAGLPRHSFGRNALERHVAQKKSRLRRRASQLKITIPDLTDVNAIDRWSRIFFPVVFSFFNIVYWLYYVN",
  "sequence (P18508 whole entry)": "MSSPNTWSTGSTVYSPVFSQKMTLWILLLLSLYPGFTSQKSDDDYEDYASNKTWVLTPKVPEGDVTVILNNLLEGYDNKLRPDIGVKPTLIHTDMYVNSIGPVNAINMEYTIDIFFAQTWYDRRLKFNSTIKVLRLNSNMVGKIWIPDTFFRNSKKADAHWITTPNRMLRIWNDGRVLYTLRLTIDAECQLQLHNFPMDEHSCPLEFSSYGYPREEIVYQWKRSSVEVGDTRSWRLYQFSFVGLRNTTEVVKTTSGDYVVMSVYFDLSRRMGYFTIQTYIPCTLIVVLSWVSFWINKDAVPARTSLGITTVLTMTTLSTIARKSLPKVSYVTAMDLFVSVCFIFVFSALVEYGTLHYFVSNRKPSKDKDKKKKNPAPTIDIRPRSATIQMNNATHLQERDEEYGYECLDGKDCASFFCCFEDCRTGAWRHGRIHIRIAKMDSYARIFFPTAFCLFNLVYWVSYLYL",
  "assay": "[35S]TBPS Binding Assay",
  "details": "pH 7.4; 25 °C",
  "description": "Briefly, aliquots of membrane solution (0.5 mg/mL final protein concentration in assay) were incubated with 5 μM GABA, 2 nM [35S]TBPS (45−120 Ci/mmol), and 5 μL aliquots of steroid in DMSO solution (final assay concentrations ranged from 1 nM to 10 μM), and brought to a final volume of 1 mL with 200 mM NaCl, 50 mM potassium phosphate buffer, pH 7.4. […] Assay tubes were incubated for 2 h at room temperature.",
  "data": [
    {"smiles": "C[C@]12CC[C@@H](O)C[C@@H]1CC[C@@H]1[C@@H]2C(=O)C[C@]2(C)C(C=O)=CC[C@@H]12", "note": "[US9388210, 5a]", "values": [
      {"measurement": "IC50", "result": 0.997, "unit": "µM"}
    ]},
    {"smiles": "C[C@]12CC[C@@H](O)C[C@@H]1CC[C@H]1[C@@H]3CC[C@H](C=O)[C@@]3(C)CC(=O)[C@@H]12", "note": "[US9388210, 5b]", "values": [
      {"measurement": "IC50", "result": 0.77, "unit": "µM"}
    ]}
  ]
}
